In ChEMBL document CHEMBL1139069, “Novel antiproliferative analogs of the Taq DNA polymerase inhibitor catalpol” (2007) one finds GI50 and Activity data, which are given here for eight molecules.

Holding throughout (format): functional
Assay [1] has as its system SW1573. Put plainly: Antiproliferative activity against human SW1573 cells after 48 hrs by SRB assay. The settings on record: SW1573, 48 h.
In the next assay the test system is HeLa. Nature of the assay: Antiproliferative activity against human HeLa cells after 48 hrs by SRB assay.
In another assay the test system is A2780. Put plainly: Antiproliferative activity against human A2780 cells after 48 hrs by SRB assay. The following applies: A2780, 48 h.
The test system of assay [2] is HBL-100. Put plainly: Cell cycle arrest in human HBL100 cells assessed as accumulation at G0/G1 phase at 5 uM after 24 hrs by flow cytometry.
Assay [3] relates to SW1573. Nature of the assay: Cell cycle arrest in human SW1573 cells assessed as accumulation at S phase at 5 uM after 24 hrs by flow cytometry.
Assay [4] has as its system SW1573. Put plainly: Cell cycle arrest in human SW1573 cells assessed as accumulation at G0/G1 phase at 10 uM after 24 hrs by flow cytometry.
Assay [5] concerns HBL-100. Nature of the assay: Antiproliferative activity against human HBL100 cells after 48 hrs by SRB assay. The following applies: HBL-100, 48 h.
For assay [6], the system named is SW1573. Nature of the assay: Cell cycle arrest in human SW1573 cells assessed as accumulation at G0/G1 phase at 5 uM after 24 hrs by flow cytometry.
A further assay has as its system T47D. Put plainly: Antiproliferative activity against human T47D cells after 48 hrs by SRB assay.
Assay [7] relates to HBL-100. Put plainly: Cell cycle arrest in human HBL100 cells assessed as accumulation at G0/G1 phase at 10 uM after 24 hrs by flow cytometry.
The test system of a further assay is WiDr. Nature of the assay: Antiproliferative activity against human WiDr cells after 48 hrs by SRB assay.
Assay [8] deals with HBL-100. Nature of the assay: Cell cycle arrest in human HBL100 cells assessed as accumulation at S phase at 10 uM after 24 hrs by flow cytometry.
In assay [9] the test system is HBL-100. Nature of the assay: Cell cycle arrest in human HBL100 cells assessed as accumulation at S phase at 5 uM after 24 hrs by flow cytometry.
Assay [10] has as its system SW1573. Put plainly: Cell cycle arrest in human SW1573 cells assessed as accumulation at S phase at 10 uM after 24 hrs by flow cytometry.
Assay [11] has as its system SW1573. Put plainly: Cell cycle arrest in human SW1573 cells assessed as accumulation at G2/M phase at 5 uM after 24 hrs by flow cytometry.
The subject of assay [12] is HBL-100. Put plainly: Cell cycle arrest in human HBL100 cells assessed as accumulation at G2/M phase at 5 uM after 24 hrs by flow cytometry.
Assay [13] deals with HBL-100. Put plainly: Cell cycle arrest in human HBL100 cells assessed as accumulation at G2/M phase at 10 uM after 24 hrs by flow cytometry.
The subject of assay [14] is SW1573. Put plainly: Cell cycle arrest in human SW1573 cells assessed as accumulation at G2/M phase at 10 uM after 24 hrs by flow cytometry.

With `CC(C)(C)[Si](OC[C@H]1O[C@H](O[C@@H]2OC=C[C@H]3[C@H](O[Si](c4ccccc4)(c4ccccc4)C(C)(C)C)[C@@H]4O[C@]4(CO[Si](c4ccccc4)(c4ccccc4)C(C)(C)C)[C@@H]23)[C@H](O)[C@@H](O)[C@@H]1O)(c1ccccc1)c1ccccc1`, the GI50 is 1.8 µM in the assay with SW1573 [1]; 2.1 µM with HeLa; 2.4 µM with A2780; 2.4 µM in the assay on HBL-100 [5]; 2.7 µM with T47D; 2 µM in the assay with WiDr. For the same molecule, the Activity with HBL-100 [2] is given as 56%; in the assay on SW1573 [3], 29%; with SW1573 [4], 59%; in the assay on SW1573 [6] it was 58%; in the assay on HBL-100 [7], 59%; with HBL-100 [8], 30%. Besides, the Activity in the assay on HBL-100 [9] was found to be 32%; in the assay on SW1573 [10], 37%; with SW1573 [11] it was 13%; in the assay on HBL-100 [12] it was 12%; with HBL-100 [13] it was 11%; in the assay on SW1573 [14] it was 4%.

In the case of `CC(=O)OC[C@H]1O[C@H](O[C@@H]2OC=C[C@H]3[C@H](OC(C)=O)[C@@H]4O[C@]4(COC(C)=O)[C@@H]23)[C@H](OC(C)=O)[C@@H](OC(C)=O)[C@@H]1OC(C)=O`, the GI50 was greater than 100 µM with SW1573 [1], 60 µM in the assay on A2780, greater than 100 µM in the assay with T47D and greater than 100 µM in the assay on WiDr.

On to `O=C(OC[C@H]1O[C@H](O[C@@H]2OC=C[C@H]3[C@H](OC(=O)c4ccccc4)[C@@H]4O[C@]4(COC(=O)c4ccccc4)[C@@H]23)[C@H](OC(=O)c2ccccc2)[C@@H](OC(=O)c2ccccc2)[C@@H]1OC(=O)c1ccccc1)c1ccccc1`, for which the GI50 with SW1573 [1], in the assay with HeLa, with A2780, with HBL-100 [5], in the assay on T47D and in the assay on WiDr was greater than 100 µM throughout.

On to `CC(C)(C)[Si](C)(C)OC[C@]12O[C@H]1[C@@H](O)[C@@H]1C=CO[C@@H](O[C@H]3O[C@H](CO)[C@@H](O)[C@H](O)[C@H]3O)[C@@H]12`, for which the GI50 in the assay on SW1573 [1] is 88 µM; in the assay with HeLa, 77 µM; in the assay on A2780, 36 µM; with HBL-100 [5], 52 µM; in the assay with T47D, 87 µM; with WiDr, 81 µM.

As to `CC(C)(C)[Si](OC[C@H]1O[C@H](O[C@@H]2OC=C[C@H]3[C@H](O)[C@@H]4O[C@]4(CO[Si](c4ccccc4)(c4ccccc4)C(C)(C)C)[C@@H]23)[C@H](O)[C@@H](O)[C@@H]1O)(c1ccccc1)c1ccccc1`, the GI50 in the assay on SW1573 [1] is 2.7 µM; with HeLa, 4.4 µM; with A2780, 2.4 µM; with HBL-100 [5] it was 2.7 µM; with T47D it was 4.1 µM; in the assay with WiDr, 3.4 µM. Also, the Activity in the assay with HBL-100 [2] is recorded as 52%; with SW1573 [3], 32%; in the assay with SW1573 [4], 61%; with SW1573 [6], 54%; in the assay with HBL-100 [7] it was 59%; in the assay on HBL-100 [8], 28%. For the same molecule, the Activity is given as 33% in the assay on HBL-100 [9]; 28% with SW1573 [10]; 14% with SW1573 [11]; 15% in the assay with HBL-100 [12]; 13% in the assay with HBL-100 [13]; 11% with SW1573 [14].

Take `C[C@]1(O)C[C@@H](O)[C@]2(O)C=CO[C@@H](O[C@H]3O[C@H](CO)[C@@H](O)[C@H](O)[C@H]3O)[C@@H]21` [HARPAGIDE]: the GI50 in the assay with SW1573 [1], in the assay on A2780, in the assay with T47D and with WiDr was greater than 100 µM each time.

On to `OC[C@H]1O[C@@H](O[C@@H]2OC=C[C@H]3[C@H](O)[C@@H]4O[C@]4(CO)[C@@H]23)[C@H](O)[C@@H](O)[C@@H]1O` [CATALPOL], for which the GI50 with SW1573 [1], with A2780, in the assay on T47D and in the assay on WiDr was greater than 100 µM in each case.

Turning to `CC(C)(C)[Si](C)(C)OC[C@H]1O[C@H](O[C@@H]2OC=C[C@H]3[C@H](O)[C@@H]4O[C@]4(CO[Si](C)(C)C(C)(C)C)[C@@H]23)[C@H](O)[C@@H](O)[C@@H]1O`, the GI50 is 4.8 µM in the assay with SW1573 [1]; 3.6 µM in the assay on HeLa; 2.6 µM with A2780; 2.8 µM in the assay on HBL-100 [5]; 3.6 µM in the assay with T47D; 2.7 µM with WiDr. The Activity in the assay with HBL-100 [2] was 54%; with SW1573 [3], 37%; in the assay on SW1573 [4], 63%; with SW1573 [6] it was 49%; in the assay with HBL-100 [7], 51%; in the assay on HBL-100 [8], 30%. Further, the Activity is 35% with HBL-100 [9]; 20% in the assay on SW1573 [10]; 14% in the assay with SW1573 [11]; 11% with HBL-100 [12]; 19% with HBL-100 [13]; 17% in the assay on SW1573 [14].
